IC50 data for one compound are collected here from ChEMBL document CHEMBL5729401, “Inhibitors of Rho associated coiled-coil containing protein kinase” (2022).

A word on the IC50: it is the point on the concentration scale where inhibition reaches its midpoint.

The structures appear in SMILES notation.

The test deals with Rho-associated protein kinase 2 (Homo sapiens, UniProt O75116). The test can be described thus: Z-lyte assay: Compounds activities were measured by Z'-lyte kinase kit (ThermoFisher Scientific). The percent inhibition rate was calculated by normalizing the kinase activity value obtained with 1 μM compound treatment against DMSO control value. IC50s were calculated using the GraphPad Prism software with kinase activities data that were collected from 9 points serial dilution of compounds treatment.
Chain of Rho-associated protein kinase 2 (O75116 whole entry): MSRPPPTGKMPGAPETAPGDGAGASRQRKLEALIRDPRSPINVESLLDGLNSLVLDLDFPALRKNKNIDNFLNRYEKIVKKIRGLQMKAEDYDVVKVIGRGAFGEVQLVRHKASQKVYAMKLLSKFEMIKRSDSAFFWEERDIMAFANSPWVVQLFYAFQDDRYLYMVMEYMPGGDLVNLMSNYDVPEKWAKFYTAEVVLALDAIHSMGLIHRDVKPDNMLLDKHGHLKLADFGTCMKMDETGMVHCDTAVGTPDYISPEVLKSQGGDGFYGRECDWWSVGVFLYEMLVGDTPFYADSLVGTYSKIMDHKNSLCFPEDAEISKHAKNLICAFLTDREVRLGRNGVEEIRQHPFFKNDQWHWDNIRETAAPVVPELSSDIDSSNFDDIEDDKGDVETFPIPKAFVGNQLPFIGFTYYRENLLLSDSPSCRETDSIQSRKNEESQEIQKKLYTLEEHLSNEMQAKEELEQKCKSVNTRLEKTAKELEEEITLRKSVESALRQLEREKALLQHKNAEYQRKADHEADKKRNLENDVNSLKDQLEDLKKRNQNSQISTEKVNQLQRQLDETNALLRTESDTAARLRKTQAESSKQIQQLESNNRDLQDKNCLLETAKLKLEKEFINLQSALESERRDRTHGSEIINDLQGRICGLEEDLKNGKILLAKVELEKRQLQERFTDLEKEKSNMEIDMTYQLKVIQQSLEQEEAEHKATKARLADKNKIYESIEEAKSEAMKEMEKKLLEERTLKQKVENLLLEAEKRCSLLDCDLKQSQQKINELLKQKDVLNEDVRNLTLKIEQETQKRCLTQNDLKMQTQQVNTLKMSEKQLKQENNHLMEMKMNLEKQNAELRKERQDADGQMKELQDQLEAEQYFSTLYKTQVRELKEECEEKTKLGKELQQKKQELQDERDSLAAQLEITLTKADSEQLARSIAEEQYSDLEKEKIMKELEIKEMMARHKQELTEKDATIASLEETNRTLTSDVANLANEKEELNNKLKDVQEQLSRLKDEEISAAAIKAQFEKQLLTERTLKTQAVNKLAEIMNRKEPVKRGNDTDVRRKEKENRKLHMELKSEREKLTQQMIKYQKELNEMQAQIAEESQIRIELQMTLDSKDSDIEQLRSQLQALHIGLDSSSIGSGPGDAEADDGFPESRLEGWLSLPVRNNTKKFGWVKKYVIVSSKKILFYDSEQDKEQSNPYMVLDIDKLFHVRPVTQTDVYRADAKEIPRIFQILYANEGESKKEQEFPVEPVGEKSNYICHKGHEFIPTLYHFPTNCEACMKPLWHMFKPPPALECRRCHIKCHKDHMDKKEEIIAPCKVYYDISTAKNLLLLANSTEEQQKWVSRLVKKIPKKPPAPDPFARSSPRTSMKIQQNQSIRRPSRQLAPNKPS

As to `CNC(C(=O)Nc1ccc(-c2cn[nH]c2)cc1)c1ccc(OC)c(F)c1` (stereo unspecified), the IC50 was 21 nM.
